Results on 7 compounds are retold here after publication PMC8066339, “Optimization of 2-Acylaminocycloalkylthiophene Derivatives for Activity against Staphylococcus aureus RnpA” (Antibiotics, 2021).

Where “and” joins values, the source holds several entries; their conditions need not be identical. Equal values may be shown once. Entries after “also recorded” stand apart in the source; their conditions may differ. Read-outs that look alike come from different tables or passages of the source. A value given as a limit tells only on which side of the number the result lay.

One data set is described as follows: MTT cytotoxicity testing. Conditions: human, HEP G2 cells (human liver epithelial cells). The method, then:
For the scaffold to have translational significance, it must be non-toxic to human cells. Accordingly, an initial assessment of toxicity was performed using human liver epithelial (HEP G2) cells via a 3-(4,5-dimethylthiazol-2-yl)-2,5-diphenyltetrazolium bromide (MTT) assay in the presence of up to 400 µM of each analog. […] Viability of 70% was used as the cut-off criteria for toxicity (Figure 4, dashed line), according to ISO guidelines, as described in Materials and Methods.
Human liver epithelial cells (HEP G2) were cultured in Dulbecco’s Modified Eagle Medium (DMEM; Fisher Scientific, Hampton, NH) supplemented with 10% heat inactivated fetal bovine serum (FBS; Corning Life Sciences) and 1% penicillin/streptomycin (Thermofisher Scientific). Cells were incubated at 37 °C with 5% CO2 in Nunc (Roskilde, Denmark) tissue culture flasks. Cells were grown in monolayers until exceeding 70% confluency, removed with 0.25% trypsin (Fisher Scientific), resuspended in fresh medium, and used to seed approximately 2.5 × 10^5 cells/mL into each well of a 96 well tissue culture microplate (Nunc) containing 200 µL of fresh medium. Cytotoxicity testing was conducted according to the guidelines of the International Organization for Standardization (ISO) 10993-5:2009. After 24 h of incubation, the cell media was removed, and adherent cells were washed with 1× phosphate buffered saline (PBS). Cell media was supplemented with 5% per volume of compound at final concentrations from 12.5 µM to 400 µM and incubated 20–24 h at 37 °C with 5% CO2. After incubation, medium supplemented with compound was removed from the wells and replaced with 100 µL of fresh culture medium. Then, 10 µL of 12 mM (3-(4,5-dimethylthiazol-2-yl)-2,5-diphenyltetrazolium bromide (MTT) stock reagent (CyQUANT MTT cell proliferation kit; Thermofisher Scientific) was added to each well. After labeling the cells with the MTT reagent, all but 25 µL of medium was removed from the wells, and 50 µL of DMSO was added to each well and mixed thoroughly and cells were incubated at 37 °C with 5% CO2 for 10 min. After incubation, wells were mixed again and using a SPECTRAmax5 microplate reader, absorbance was read at 540 nm. Cells were treated with 125 µg/mL mitomycin C (Fisher Scientific) to serve as a positive control and 2% DMSO as a negative control. […] All compounds were tested in two independent experiments in triplicate and cell viability was expressed as a percent of the negative control.
Background: Tetrazolium assays rely on reduction of a dye to a coloured formazan, in cell work by metabolically active cells.

For another data set, the system named is S. aureus. More on the design: method as in PMID 21347352, PMID 25605356, PMID 31035380. To be noted: previously reported, Figure 1; cited from earlier work.
The test system of a further data set is S. aureus UAMS-1. Put plainly: Fractional inhibitory concentration (FIC) testing with mupirocin. Conditions: Staphylococcus aureus. The data set is classed as cell-based, Staphylococcus aureus. The protocol: Fractional inhibitory concentration (FIC) testing was performed, as previously described. Briefly, each well of a 96-well microtiter plate was inoculated with 10^4 CFU of S. aureus UAMS-1 [42]. Each row of the plate was supplemented with two-fold increasing concentrations of mupirocin (0 µg mL^−1 to 2 µg mL^−1) whereas each column contained two-fold increasing concentrations of putative RnpA inhibitor compound (0.03, 0.0625, 0.125, 0.25, 0.5, 1, or 2× MIC). […] The FIC index was defined by the following formula: FIC = (MIC of Drug A in Combination/MIC of Drug A Alone) + (MIC of Drug B in Combination/MIC of Drug B Alone). A synergistic interaction was defined as a FIC value of ≤0.5, an additive interaction as 0.5–1, no interaction as 1–4 and antagonistic interaction as FIC ≥ 4, as described.

Data set [1] relates to S. aureus strain UAMS-1. Kind of data set: Minimum inhibitory concentration (MIC) testing, CLSI broth microdilution. The data set is classed as cell-based, Staphylococcus aureus. To be noted: Staphylococcus aureus, UAMS1. The method, then:
Staphylococcus aureus strains UAMS-1 is a well-characterized antibiotic susceptible osteomyelitis clinical isolate (Blevins Infect. Immun 2003). For experiments, UAMS-1 was cultured in Mueller Hinton (MH) broth and processed as described below. Escherichia coli strain BL21 (DE3) was cultured in Luria–Bertani (LB) and supplemented with ampicillin (50 µg ml^−1) where indicated.
Minimum inhibitory concentration (MIC) was performed according to the Clinical and Laboratory Standards Institute (CLSI) guidelines. Briefly, individual wells of a 96-well microtiter plate were inoculated with 10^4 colony forming units (CFU) of S. aureus UAMS-1 containing two-fold increasing concentrations (0 µM to 100 µM) of the indicated antibiotic or putative RnpA inhibitor and grown at 37 °C for 16 h in MH broth. The MIC was defined as the lowest concentration of compound in which there was no visible bacterial growth detected by the unaided eye.
In general terms: Dilution methods test growth across graded concentrations, often in twofold steps.

In a further data set the target is T1, S. aureus RnpA (Staphylococcus aureus, UniProt P0A0H5).
T1 construct: made in house; host or cells: E. coli BL21 (DE3)
T1 sequence (P0A0H5 1-117): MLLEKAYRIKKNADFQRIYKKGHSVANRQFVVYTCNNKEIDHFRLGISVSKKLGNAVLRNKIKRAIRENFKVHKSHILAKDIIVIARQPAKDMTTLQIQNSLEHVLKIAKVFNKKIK
Kind of data set: In vitro RnpA mRNA degradation assay (RNase Alert FRET substrate). In kind it is biochemical. The protocol:
(§1) His-tagged RnpA was purified as previously described. E. coli BL21 (DE3) cells harboring plasmid pEXP5-nt containing a hexahistidine tag fused to the N-terminus of S.aureus RnpA coding region were grown in LB supplemented with 50 µg mL^−1 ampicillin to OD600 = 0.6 and induced with 1mM isopropyl β-D-1-thiogalactopyranoside (IPTG) for three hours to induce protein expression. […] Cells were mechanically lysed by three passes at 18,000 psi through a French Pressure Cell Press (SLM-Aminco; Pittsford, NY, USA) and cell debris was removed by centrifugation at 17,000× g for 10 min at 4 °C. Supernatants were collected, filtered through a 0.2 micron syringe filter, then loaded onto a 5 mL HisPur cobalt column (ThermoFisher Scientific, Waltham, MA, U.S.A.) using the BioRad Maximizer Duo-Flow Medium Pressure Chromatography System. Protein was eluted using an imidazole gradient (80 mM to 500 mM). Fractions were assessed for RnpA presence and purity via SDS-PAGE analysis, Coomassie staining and Western blotting using an anti-His antibody (Invitrogen; Grand Island, NY, USA).
RnpA-mediated degradation was assessed using the Rnase Alert QC System (Thermofisher Scientific). 20 pmol of His-RnpA was combined with 0.4 μM (final concentration) FRET substrate and either DMSO (negative control) or compound ≤500 µM in 1× Rnase Alert Buffer. Reactions were assembled in 96-well PCR plates (BioRad) and incubated at 37 °C for 30 min in the BioRad CFX 96 Connect Real Time instrument, measuring fluorescence every 2 min at 490 nm excitation/520 nm emission. Percent inhibition of each compound was calculated at the 30 min time-point based on the following formula: (RFU of compound treated RnpA/RFU of DMSO-treated RnpA) × 100.

A further data set addresses T2, RNase P (RnpA + rnpB) (Staphylococcus aureus, UniProt P0A0H5).
T2 construct: made in house; host or cells: E. coli BL21 (DE3)
T2 sequence (P0A0H5 1-117): T1 sequence (P0A0H5 1-117)
Kind of data set: In vitro ptRNA^Tyr processing assay with reconstituted RNase P. In kind it is biochemical. Conditions: for IC50: average of at least two tests. The method, then:
as §1
rnpB and RNA substrates (spa, ptRNA^Tyr) for RnpA functional assays, as well as mature tRNA were synthesized in vitro, as previously described. Each gene was PCR amplified using S. aureus UAMS-1 chromosomal DNA as a template and the corresponding oligonucleotide primer pairs, in which the forward primers contained an RNA polymerase T7 promoter sequence. The following primer pairs were used in this study (T7 promoter underlined): T7-rnpB forward—[…] and rnpB reverse—[…]; T7-ptRNA^Tyr forward—[…] and ptRNA^Tyr reverse—TGGTGGAG GGGGGCAGATTC; T7-spa forward—[…] CGACGTCCAG and spa reverse—[…]. Resulting PCR products were analyzed on a 0.8% agarose gel and purified using the Qiagen QIAquick Gel Extraction kit, according to the manufacturer’s instructions. In vitro transcription was performed using the TranscriptAid T7 High Yield Transcription kit (Fermentas; Burlington, ON, Canada) following manufacturer’s instructions. Following in vitro transcription, the RNA was treated with DNase I for 90 min and re-purified using the Qiagen RNeasy Mini kit. RNA was quantified using a NanoDrop2000 spectrophotometer.
S.aureus Rnase P activity assays were performed as previously described. Briefly, ptRNA^Tyr and rnpB RNA was denatured by heating to 95 °C for 5 min then slow cooled to room temperature. RNA species were then combined with 2× low salt buffer (50 mM Tris-HCl pH 8.0, 5 mM MgCl2) and incubated for 5 min at 37 °C. Rnase P was reconstituted by mixing an equal molar ratio of His-RnpA and rnpB for 15 min at 37 °C. […] Then, 5 pmol ptRNA^Tyr was added to each reaction and incubated for an additional 30 min at 37 °C. Reactions were stopped with 2× RNA loading dye (Thermo Scientific) and heating to 65 °C for 10 min. Samples were electrophoresed on a 7M urea/8% polyacrylamide gel then stained with 0.5 µg mL^−1 ethidium bromide. The BioRad EZ Gel Doc imaging system was used to visualize the RNA and relative abundance of mature tRNA^Tyr in the DMSO control or in the samples containing compound and analyzed using BioRad Image Lab densitometry software. The percent inhibitory activity of each compound was calculated using the following equation: (% experimental processing/% processing negative control) × 100.

Data set [2] deals with S. aureus strain UAMS-1. More on the design: method as in Colquhoun et al. [34]. Conditions: ref Colquhoun et al. [34]; cited from earlier work.

Turning to `CO[C@@]12[C@H](COC(N)=O)C3=C(C(=O)C(C)=C(N)C3=O)N1C[C@@H]1N[C@@H]12` [Mitomycin C, reference compound], the viability at 400 µM in “MTT cytotoxicity testing” came out at 54.8%.

For the compound `CC1CCN(C(=O)Nc2cc(Cl)cc(Cl)c2)CC1` [JC1], the “S. aureus MIC” value in the data set with S. aureus was 3.4 µM.

In the case of `C/C(=C\C(=O)OCCCCCCCCC(=O)O)C[C@@H]1OC[C@H](C[C@@H]2O[C@H]2[C@@H](C)[C@H](C)O)[C@@H](O)[C@H]1O` [Mup, mupirocin, reference compound], in the data set with S. aureus UAMS-1 (UAMS1, mupirocin alone, read-out: Mup MIC, Dosed-Individually), the MIC turned out to be 0.5 µM.

Consider `O=C(CF)Nc1sc2c(c1C(=O)Nc1cccc(Cl)c1)CCCCC2` [RNP0018], for which the MIC is over 200 µg/mL in the data set on S. aureus strain UAMS-1 [1] and over 500 µM in the data set with S. aureus UAMS-1 (UAMS1, read-out: Cpd MIC, Dosed-Individually). For the same compound, the IC50 is 33 µM at S. aureus RnpA and 58 µM on RNase P (RnpA + rnpB) (ptRNA IC50, in vitro ptRNA^Tyr processing). The “Inhibition of in vitro RnpA-mediated RNA degradation (in words)” value on S. aureus RnpA is listed as “good inhibitory properties; also recorded: exhibited inhibitory activity”. For the same compound, on RNase P (RnpA + rnpB), the “Inhibition of in vitro RnpA ptRNA processing (in words)” value is given as “good inhibitory properties”.

In the case of `O=C(Nc1cccc(Cl)c1)c1c(NC(=O)C(F)F)sc2c1CCCCC2` [RNP0017], the MIC is over 200 µg/mL with S. aureus strain UAMS-1 [1] (S. aureus strain UAMS-1, read-out: MIC) and over 500 µM with S. aureus UAMS-1 (UAMS1, compound alone, read-out: Cpd MIC, Dosed-Individually). Also, the “Inhibition of in vitro RnpA-mediated RNA degradation (in words)” value at S. aureus RnpA is listed as “exhibited inhibitory activity”. For the same compound, the IC50 on S. aureus RnpA (in vitro RnpA-mediated RNA degradation, read-out: mRNA IC50) is 43 µM; on RNase P (RnpA + rnpB) (in vitro ptRNA^Tyr processing, read-out: ptRNA IC50), over 250 µM. Also, the “Inhibition of in vitro RnpA ptRNA processing (in words)” value at RNase P (RnpA + rnpB) is “did not appear to display any inhibition; also recorded: weak or no inhibitory activity”.

On to `O=C(Nc1ccc(Cl)cc1)c1c(NC(=O)C(F)(F)F)sc2c1CCCCC2` [JR1], for which the MIC in the data set on S. aureus strain UAMS-1 [2] was 1.25 µM and 0.52 µg/mL. Besides, the “S. aureus MIC” value with S. aureus was 1.25 µM.

As to `Cc1cc(/C=C(/C#N)C(=O)Nc2cccc(Br)c2)c(C)n1-c1ccc(C(=O)O)cc1` [RNP1000], the “S. aureus MIC” value in the data set on S. aureus was 34 to 69 µM.

What is called viability is a per cent measure of how many cells are alive, often set against a control. A lower viability goes with a greater loss of cells. Broadly, the MIC is the smallest concentration in the dilution series that meets the test's criterion for growth inhibition. What is called IC50 is the concentration needed to halve the response being measured.
